According to ChEMBL document CHEMBL3885861, “Open TG-GATES”:

Species on record: Rattus norvegicus
Assay: Open TG-GATES - Regimen: Daily Repeat
Assay type: toxicity, organism-based, Sprague-Dawley
Set-up: regimen Daily Repeat, gender Male, age 6 weeks
Settings: in vivo, po, route gavage; for APTT / Bas / Eos / Fbg / Hb / Ht / Lym / MCH / MCHC / MCV / Mono / Neu / PT / Plat / RBC / Ret / WBC: tissue Blood; for KIDNEY_L / KIDNEY_R / KIDNEY_TOTAL: tissue Kidney; for LIVER: tissue Liver; for A/G / ALP / ALT / AST / BUN / CRE / Ca / Cl / DBIL / GLC / IP / K / LDH / Na / PL / RALB / TBIL / TC / TG / TP / gamma-GTP: tissue Plasma
[1] = 30 mg/kg, 72 h, dose level Middle, time 3 day
[2] = 30 mg/kg, […], dose level Middle, time 7 day
[3] = 30 mg/kg, […], dose level Middle, time 14 day
[4] = 30 mg/kg, […], dose level Middle, time 28 day
[5] = 100 mg/kg, 72 h, dose level High, time 3 day
[6] = 100 mg/kg, […], dose level High, time 7 day
[7] = 100 mg/kg, […], dose level High, time 14 day
[8] = 100 mg/kg, […], dose level High, time 28 day

Nc1ccc(Cc2ccc(N)cc2)cc1
TERMINAL_BW [1]: 240.8 g
APTT [1]: 13.8 s
Bas [1]: 0%
Eos [1]: 1%
Fbg [1]: 295.8 mg/dL
Hb [1]: 13.3 g/dL
Ht [1]: 39.3%
Lym [1]: 72.6%
MCH [1]: 20.5 pg
MCHC [1]: 33.8%
MCV [1]: 60.6 fL
Mono [1]: 2.6%
Neu [1]: 23%
PT [1]: 11.4 s
Plat [1]: 133.5 x10_4/uL
RBC [1]: 649.4 x10_4/ul
Ret [1]: 5.6%
WBC [1]: 112 x10_2/uL
KIDNEY_L [1]: 1 g
KIDNEY_R [1]: 1 g
KIDNEY_TOTAL [1]: 2 g
LIVER [1]: 12.3 g
A/G [1]: 0.8
ALP [1]: 1785.8 IU/L
ALT [1]: 59.4 IU/L
AST [1]: 104 IU/L
BUN [1]: 14.6 mg/dL
CRE [1]: 0.2 mg/dL
Ca [1]: 11.1 mg/dL
Cl [1]: 105.6 meq/L
DBIL [1]: 0.022 mg/dL
GLC [1]: 159.2 mg/dL
IP [1]: 7.5 mg/dL
K [1]: 4.2 meq/L
LDH [1]: 89.2 IU/L
Na [1]: 143.4 meq/L
PL [1]: 160 mg/dL
RALB [1]: 2.6 g/dL
TBIL [1]: 0.05 mg/dL
TC [1]: 95.8 mg/dL
TG [1]: 83.4 mg/dL
TP [1]: 5.8 g/dL
gamma-GTP [1]: 2 IU/L
TERMINAL_BW [2]: 277.9 g
TERMINAL_BW [3]: 333.9 g
TERMINAL_BW [4]: 429.1 g
APTT [2]: 14.2 s
Bas [2]: 0.2%
Eos [2]: 0.8%
Fbg [2]: 286 mg/dL
Hb [2]: 13.7 g/dL
Ht [2]: 39.1%
Lym [2]: 71.6%
MCH [2]: 20.6 pg
MCHC [2]: 34.9%
MCV [2]: 59.1 fL
Mono [2]: 2.8%
Neu [2]: 23.8%
PT [2]: 11.4 s
Plat [2]: 147.7 x10_4/uL
RBC [2]: 663 x10_4/ul
Ret [2]: 5.2%
WBC [2]: 101.6 x10_2/uL
APTT [3]: 15.3 s
Bas [3]: 0.2%
Eos [3]: 0.6%
Fbg [3]: 273.6 mg/dL
Hb [3]: 13.7 g/dL
Ht [3]: 39.6%
Lym [3]: 75%
MCH [3]: 20.1 pg
MCHC [3]: 34.7%
MCV [3]: 57.9 fL
Mono [3]: 2.2%
Neu [3]: 21.2%
PT [3]: 11.8 s
Plat [3]: 141.9 x10_4/uL
RBC [3]: 684.8 x10_4/ul
Ret [3]: 4.6%
WBC [3]: 128.9 x10_2/uL
APTT [4]: 17.1 s
Bas [4]: 0.8%
Eos [4]: 1%
Fbg [4]: 273.4 mg/dL
Hb [4]: 14.9 g/dL
Ht [4]: 41.7%
Lym [4]: 76.8%
MCH [4]: 19.8 pg
MCHC [4]: 35.7%
MCV [4]: 55.5 fL
Mono [4]: 2.2%
Neu [4]: 19%
PT [4]: 11.9 s
Plat [4]: 109.8 x10_4/uL
RBC [4]: 752 x10_4/ul
Ret [4]: 2.7%
WBC [4]: 131.8 x10_2/uL
KIDNEY_L [2]: 1.1 g
KIDNEY_R [2]: 1.1 g
KIDNEY_TOTAL [2]: 2.2 g
KIDNEY_L [3]: 1.2 g
KIDNEY_R [3]: 1.2 g
KIDNEY_TOTAL [3]: 2.4 g
KIDNEY_L [4]: 1.4 g
KIDNEY_R [4]: 1.4 g
KIDNEY_TOTAL [4]: 2.9 g
LIVER [2]: 13.2 g
LIVER [3]: 15.2 g
LIVER [4]: 19.2 g
A/G [2]: 0.8
ALP [2]: 1631.6 IU/L
ALT [2]: 37 IU/L
AST [2]: 68 IU/L
BUN [2]: 17.4 mg/dL
CRE [2]: 0.2 mg/dL
Ca [2]: 11.2 mg/dL
Cl [2]: 105.2 meq/L
DBIL [2]: 0.026 mg/dL
GLC [2]: 173.6 mg/dL
IP [2]: 7.4 mg/dL
K [2]: 4.1 meq/L
LDH [2]: 85.2 IU/L
Na [2]: 143 meq/L
PL [2]: 145 mg/dL
RALB [2]: 2.7 g/dL
TBIL [2]: 0.064 mg/dL
TC [2]: 81 mg/dL
TG [2]: 125.2 mg/dL
TP [2]: 6 g/dL
gamma-GTP [2]: 1.2 IU/L
A/G [3]: 0.8
ALP [3]: 1617.2 IU/L
ALT [3]: 38.4 IU/L
AST [3]: 66.4 IU/L
BUN [3]: 15.6 mg/dL
CRE [3]: 0.2 mg/dL
Ca [3]: 10.9 mg/dL
Cl [3]: 105 meq/L
DBIL [3]: 0.016 mg/dL
GLC [3]: 190.6 mg/dL
IP [3]: 6.8 mg/dL
K [3]: 3.7 meq/L
LDH [3]: 71.8 IU/L
Na [3]: 143.2 meq/L
PL [3]: 141.2 mg/dL
RALB [3]: 2.6 g/dL
TBIL [3]: 0.054 mg/dL
TC [3]: 72.8 mg/dL
TG [3]: 96.8 mg/dL
TP [3]: 6.1 g/dL
gamma-GTP [3]: 1 IU/L
A/G [4]: 0.7
ALP [4]: 1167.6 IU/L
ALT [4]: 38.6 IU/L
AST [4]: 66.2 IU/L
BUN [4]: 15.4 mg/dL
CRE [4]: 0.2 mg/dL
Ca [4]: 11.1 mg/dL
Cl [4]: 104.8 meq/L
DBIL [4]: 0.024 mg/dL
GLC [4]: 178.6 mg/dL
IP [4]: 6.1 mg/dL
K [4]: 4 meq/L
LDH [4]: 74.6 IU/L
Na [4]: 145.2 meq/L
PL [4]: 141.6 mg/dL
RALB [4]: 2.6 g/dL
TBIL [4]: 0.062 mg/dL
TC [4]: 73.6 mg/dL
TG [4]: 110.4 mg/dL
TP [4]: 6.4 g/dL
gamma-GTP [4]: 1 IU/L
TERMINAL_BW [5]: 208.1 g
APTT [5]: 17.9 s
Bas [5]: 0.6%
Eos [5]: 1%
Fbg [5]: 405.8 mg/dL
Hb [5]: 12.8 g/dL
Ht [5]: 35.9%
Lym [5]: 66.8%
MCH [5]: 19.9 pg
MCHC [5]: 35.8%
MCV [5]: 55.5 fL
Mono [5]: 6.2%
Neu [5]: 25.2%
PT [5]: 12 s
Plat [5]: 166 x10_4/uL
RBC [5]: 646 x10_4/ul
Ret [5]: 4.3%
WBC [5]: 223.6 x10_2/uL
KIDNEY_L [5]: 1 g
KIDNEY_R [5]: 1 g
KIDNEY_TOTAL [5]: 2 g
LIVER [5]: 11.6 g
A/G [5]: 0.6
ALP [5]: 3437 IU/L
ALT [5]: 290.2 IU/L
AST [5]: 509.2 IU/L
BUN [5]: 12.6 mg/dL
CRE [5]: 0.2 mg/dL
Ca [5]: 11.3 mg/dL
Cl [5]: 103.8 meq/L
DBIL [5]: 1.3 mg/dL
GLC [5]: 145.2 mg/dL
IP [5]: 7.3 mg/dL
K [5]: 4.7 meq/L
LDH [5]: 160.6 IU/L
Na [5]: 141.6 meq/L
PL [5]: 325.8 mg/dL
RALB [5]: 2.3 g/dL
TBIL [5]: 2.7 mg/dL
TC [5]: 221 mg/dL
TG [5]: 69.4 mg/dL
TP [5]: 5.9 g/dL
gamma-GTP [5]: 7.8 IU/L
TERMINAL_BW [6]: 235.7 g
TERMINAL_BW [7]: 264.2 g
TERMINAL_BW [8]: 273.7 g
APTT [6]: 17.6 s
Bas [6]: 0.6%
Eos [6]: 0.6%
Fbg [6]: 273.8 mg/dL
Hb [6]: 12.4 g/dL
Ht [6]: 34.8%
Lym [6]: 66.6%
MCH [6]: 19.7 pg
MCHC [6]: 35.6%
MCV [6]: 55.2 fL
Mono [6]: 5.8%
Neu [6]: 25.8%
PT [6]: 12.5 s
Plat [6]: 193.4 x10_4/uL
RBC [6]: 631 x10_4/ul
Ret [6]: 7.9%
WBC [6]: 238.1 x10_2/uL
APTT [7]: 21.7 s
Bas [7]: 1%
Eos [7]: 1%
Fbg [7]: 292.2 mg/dL
Hb [7]: 11.9 g/dL
Ht [7]: 33.6%
Lym [7]: 69.4%
MCH [7]: 19.8 pg
MCHC [7]: 35.4%
MCV [7]: 56 fL
Mono [7]: 5.6%
Neu [7]: 22.8%
PT [7]: 13 s
Plat [7]: 166.6 x10_4/uL
RBC [7]: 601.8 x10_4/ul
Ret [7]: 8.1%
WBC [7]: 308 x10_2/uL
APTT [8]: 37.8 s
Bas [8]: 0.8%
Eos [8]: 1%
Fbg [8]: 275.8 mg/dL
Hb [8]: 12.1 g/dL
Ht [8]: 33.5%
Lym [8]: 67.2%
MCH [8]: 18.4 pg
MCHC [8]: 36.1%
MCV [8]: 51.2 fL
Mono [8]: 4%
Neu [8]: 26.6%
PT [8]: 15.2 s
Plat [8]: 121.3 x10_4/uL
RBC [8]: 654 x10_4/ul
Ret [8]: 5.8%
WBC [8]: 304.5 x10_2/uL
KIDNEY_L [6]: 1 g
KIDNEY_R [6]: 1 g
KIDNEY_TOTAL [6]: 2 g
KIDNEY_L [7]: 1 g
KIDNEY_R [7]: 1.1 g
KIDNEY_TOTAL [7]: 2.1 g
KIDNEY_L [8]: 1.1 g
KIDNEY_R [8]: 1 g
KIDNEY_TOTAL [8]: 2.1 g
LIVER [6]: 13.1 g
LIVER [7]: 16.2 g
LIVER [8]: 14.1 g
A/G [6]: 0.6
ALP [6]: 3310.8 IU/L
ALT [6]: 96.2 IU/L
AST [6]: 198.8 IU/L
BUN [6]: 13 mg/dL
CRE [6]: 0.2 mg/dL
Ca [6]: 11.6 mg/dL
Cl [6]: 103.8 meq/L
DBIL [6]: 0.9 mg/dL
GLC [6]: 148.4 mg/dL
IP [6]: 6.9 mg/dL
K [6]: 4.4 meq/L
LDH [6]: 95 IU/L
Na [6]: 143.6 meq/L
PL [6]: 213.6 mg/dL
RALB [6]: 2.4 g/dL
TBIL [6]: 1.7 mg/dL
TC [6]: 135 mg/dL
TG [6]: 48.6 mg/dL
TP [6]: 6.1 g/dL
gamma-GTP [6]: 6 IU/L
A/G [7]: 0.5
ALP [7]: 2423.6 IU/L
ALT [7]: 91.4 IU/L
AST [7]: 260 IU/L
BUN [7]: 17.6 mg/dL
CRE [7]: 0.2 mg/dL
Ca [7]: 11.4 mg/dL
Cl [7]: 103.6 meq/L
DBIL [7]: 0.7 mg/dL
GLC [7]: 143.6 mg/dL
IP [7]: 6.4 mg/dL
K [7]: 4.1 meq/L
LDH [7]: 143.8 IU/L
Na [7]: 143.6 meq/L
PL [7]: 226.4 mg/dL
RALB [7]: 2.5 g/dL
TBIL [7]: 1.6 mg/dL
TC [7]: 165.4 mg/dL
TG [7]: 49.6 mg/dL
TP [7]: 7 g/dL
gamma-GTP [7]: 8 IU/L
A/G [8]: 0.5
ALP [8]: 3009.6 IU/L
ALT [8]: 116.6 IU/L
AST [8]: 300 IU/L
BUN [8]: 19.2 mg/dL
CRE [8]: 0.3 mg/dL
Ca [8]: 11.5 mg/dL
Cl [8]: 102 meq/L
DBIL [8]: 0.6 mg/dL
GLC [8]: 144 mg/dL
IP [8]: 5.6 mg/dL
K [8]: 4 meq/L
LDH [8]: 108.6 IU/L
Na [8]: 146.2 meq/L
PL [8]: 158.4 mg/dL
RALB [8]: 2.5 g/dL
TBIL [8]: 1.7 mg/dL
TC [8]: 113.4 mg/dL
TG [8]: 33.2 mg/dL
TP [8]: 7.6 g/dL
gamma-GTP [8]: 7.2 IU/L
